Measured values: ChEMBL document CHEMBL4190169 (Medchemcomm, 2016)

Key:
[1] = target: T1, Prostaglandin G/H synthase 1 (Ovis aries, UniProt P05979); experiment: Inhibition of ovine COX1 using arachidonic acid as substrate incubated for 5 mins followed by substrate addition measured after 2 mins by enzyme immunoassay
T1 sequence (P05979 whole entry): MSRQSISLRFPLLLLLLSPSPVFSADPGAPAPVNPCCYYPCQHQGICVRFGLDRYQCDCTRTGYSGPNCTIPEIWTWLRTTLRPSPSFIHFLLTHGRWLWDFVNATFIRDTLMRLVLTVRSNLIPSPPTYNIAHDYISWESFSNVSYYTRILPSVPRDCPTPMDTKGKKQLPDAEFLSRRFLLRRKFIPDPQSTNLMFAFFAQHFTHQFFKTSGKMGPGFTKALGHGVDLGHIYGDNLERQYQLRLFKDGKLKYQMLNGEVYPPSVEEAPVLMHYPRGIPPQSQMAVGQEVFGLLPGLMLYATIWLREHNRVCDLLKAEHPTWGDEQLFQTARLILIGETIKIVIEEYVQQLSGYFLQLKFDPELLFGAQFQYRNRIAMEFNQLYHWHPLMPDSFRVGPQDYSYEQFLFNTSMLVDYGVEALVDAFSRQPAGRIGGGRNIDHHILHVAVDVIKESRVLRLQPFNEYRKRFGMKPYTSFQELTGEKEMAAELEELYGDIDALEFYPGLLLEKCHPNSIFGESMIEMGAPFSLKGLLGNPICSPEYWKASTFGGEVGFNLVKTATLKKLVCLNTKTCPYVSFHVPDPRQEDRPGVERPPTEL

Rattus norvegicus [2] = experiment: Antiinflammatory activity in gamma-irradiated carrageenan-induced Wistar rat paw edema model assessed as paw oedema at 100 mg/kg, ip administered 1 hr prior to carrageenan challenge measured after 3 hrs (reference value: 89.5 +/- 1.47%); format: functional
Rattus norvegicus [3] = experiment: Analgesic activity in gamma-irradiated carrageenan-induced Wistar rat hyperalgesia model assessed as nociceptive threshold at 100 mg/kg, ip administered 1 hr prior to carrageenan challenge measured after 3 hrs by analgesimetric analysis (reference value: 37.60 +/- 0.79 g); format: functional
Rattus norvegicus [4] = experiment: Ulcerogenic activity in Wistar rat assessed as appearance of ulcers and erosions in stomach by measuring ulcer index at 100 mg/kg, po measured after 4 hrs; format: toxicity, organism-based; settings: in vivo
[5] = Acute toxicity in Swiss albino mouse assessed as mortality administered ip measured for 24 hrs; format: organism-based; settings: in vivo, read-out: ALD50

Structure (SMILES) | IC50 [1] [µM] | Activity (Rattus norvegicus [2]) [%] | Activity (Rattus norvegicus [3]) [g] | UI (Rattus norvegicus [4]) | LD50 at 24 h [5] [mg/kg]
O=S(=O)(Nc1nccs1)c1ccc(NCNc2n[nH]c(=S)s2)cc1 | > 50 | 24.6 | 90.21 | 0 | > 1000
Cc1ccc(C2SCC(=O)N2c2n[nH]c(=S)s2)cc1 (stereo not given) | > 50 |  |  |  | 
S=C1NN2C(c3ccccc3)=CC(c3ccccc3Cl)N=C2S1 (stereo not given) | > 50 |  |  |  | 
CN(C)c1ccc(C2C=C(c3ccccc3)N3NC(=S)SC3=N2)cc1 (stereo not given) | > 50 |  |  |  | 
N=c1cc(Nc2ccc(S(=O)(=O)Nc3nccs3)cc2)n2[nH]c(=S)sc2n1 | > 50 | 25.13 | 76.51 | 0.05 | > 1000
NS(=O)(=O)c1ccc(NCNc2n[nH]c(=S)s2)cc1 | > 50 |  |  |  | 
S=c1[nH]nc(/N=C/c2ccc(Br)cc2)s1 | > 50 | 45.62 | 95.6 | 0 | 
N=c1cc(Nc2ccc(S(=O)(=O)Nc3ccccn3)cc2)n2[nH]c(=S)sc2n1 | > 50 | 24.21 | 85.8 | 0.05 | > 800
Cc1ccc(/C=N/c2n[nH]c(=S)s2)cc1 | > 50 |  |  |  | 
CN(C)c1ccc(C2C(C#N)=C(N)N=C3SC(=S)NN32)cc1 (stereo not given) | > 50 | 43.7 | 53.88 | 0 | 
Cc1ccnc(NS(=O)(=O)c2ccc(NCNc3n[nH]c(=S)s3)cc2)n1 | > 50 | 25.31 | 80.78 | 0.05 | > 800
O=C1CSC(c2ccc(Br)cc2)N1c1n[nH]c(=S)s1 (stereo not given) | 1.32 | 25.07 | 51.51 | 0.45 | > 1000
O=C1CSC(c2ccc(Cl)cc2)N1c1n[nH]c(=S)s1 (stereo not given) | > 50 |  |  |  | 
S=C1NN2C(c3ccccc3)=CC(c3ccc(Br)cc3)N=C2S1 (stereo not given) | > 50 |  |  |  | 
Cc1cc(C)nc(NS(=O)(=O)c2ccc(NCNc3n[nH]c(=S)s3)cc2)n1 | > 50 |  |  |  | 
O=C1CSC2SC(/N=C/c3ccc(Cl)cc3)=NN12 (stereo not given) | > 50 |  |  |  | 
N#CC1=C(N)N=C2SC(=S)NN2C1c1ccc(Br)cc1 (stereo not given) | > 50 | 31.3 | 60.51 | 0.05 | 
COc1ccc(/C=N/C2=NN3C(=O)CSC3S2)cc1 (stereo not given) | > 50 | 15.47 | 54.13 | 0.05 | > 800
N=c1cc(Nc2ccc(S(=O)(=O)Nc3ncccn3)cc2)n2[nH]c(=S)sc2n1 | > 50 |  |  |  | 
N#CC1=C(N)N=C2SC(=S)NN2C1c1ccccc1 (stereo not given) | > 50 |  |  |  | 
Cc1ccc(-c2cc(C(F)(F)F)nn2-c2ccc(S(N)(=O)=O)cc2)cc1 [CELECOXIB] |  | 18.61 | 90.23 | 0 | 

Continued, in another order:

IC50 [1] [µM] | Structure (SMILES) | Activity (Rattus norvegicus [2]) [%] | Activity (Rattus norvegicus [3]) [g] | UI (Rattus norvegicus [4]) | LD50 at 24 h [5] [mg/kg]
> 50 | Nc1nnc(S)s1 |  |  |  | 
> 50 | Cc1ccc(/C=N/C2=NN3C(=O)CSC3S2)cc1 (stereo not given) |  |  |  | 
> 50 | N#CC1=C(N)N=C2SC(=S)NN2C1c1ccc([N+](=O)[O-])cc1 (stereo not given) |  |  |  | 
> 50 | O=S(=O)(Nc1ncccn1)c1ccc(NCNc2n[nH]c(=S)s2)cc1 |  |  |  | 
24 | COc1ccc(C2SCC(=O)N2c2n[nH]c(=S)s2)cc1 (stereo not given) | 31.5 | 62.37 | 0.26 | 
30.7 | S=C1NN2C(c3ccccc3)=CC(c3ccc(Cl)cc3)N=C2S1 (stereo not given) | 43.1 | 78.51 | 0.6 | 
> 50 | N#CC1=C(N)N=C2SC(=S)NN2C1c1ccc(Cl)cc1 (stereo not given) |  |  |  | 
> 50 | O=C1CSC2SC(/N=C/c3ccc(Br)cc3)=NN12 (stereo not given) | 50.49 | 44.91 | 0 | 
> 50 | S=c1[nH]nc(/N=C/c2ccc(Cl)cc2)s1 |  |  |  | 
> 50 | COc1ccc(C2C(C#N)=C(N)N=C3SC(=S)NN32)cc1 (stereo not given) |  |  |  | 
> 50 | O=S(=O)(Nc1ccccn1)c1ccc(NCNc2n[nH]c(=S)s2)cc1 |  |  |  | 
41.7 | COc1ccc(/C=N/c2n[nH]c(=S)s2)cc1 | 41.53 | 56.3 | 0.38 | 
> 50 | N=c1cc(Nc2ccc(S(N)(=O)=O)cc2)n2[nH]c(=S)sc2n1 |  |  |  | 
1.34 | COc1ccc(C2C=C(c3ccccc3)N3NC(=S)SC3=N2)cc1 (stereo not given) | 43.6 | 66.6 | 0.64 | 
